Data published in ChEMBL document CHEMBL3885881, “DrugMatrix”.

Species on record: Rattus norvegicus
Assay: DrugMatrix - Regimen: Daily Repeat
Assay type: toxicity, organism-based, Sprague-Dawley
Parameters: regimen Daily Repeat, gender Male, age 6-8 weeks
Details: in vivo, po, route oral GAVAGE, vehicle .5 % CMC; for ABSOLUTE BASOPHIL / ABSOLUTE EOSINOPHIL / ABSOLUTE LYMPHOCYTE / ABSOLUTE SEGMENTED NEUTROPHIL / BASOPHIL / EOSINOPHIL / ERYTHROCYTE COUNT / HEMATOCRIT / LYMPHOCYTE / MEAN CORPUSCULAR HEMOGLOBIN / MEAN CORPUSCULAR HEMOGLOBIN CONCENTRATION / MEAN CORPUSCULAR VOLUME / MONOCYTE / NEUTROPHIL / NUCLEATED RED BLOOD CELLS / PLATELET COUNT / LEUKOCYTE COUNT: tissue Blood; for ALANINE AMINOTRANSFERASE / ALBUMIN / ALKALINE PHOSPHATASE / ASPARTATE AMINOTRANSFERASE / BLOOD UREA NITROGEN / CARBON DIOXIDE / CHLORIDE / CHOLESTEROL / CREATINE PHOSPHOKINASE / CREATININE / GLUCOSE / LACTATE DEHYDROGENASE / PHOSPHORUS / POTASSIUM / SODIUM / TOTAL BILIRUBIN / TOTAL PROTEIN / URIC ACID: tissue Plasma
[1] = 0 mg/kg, 72 h, dose level Control, time 3 day
[2] = 0 mg/kg, 120 h, dose level Control, time 5 day
[3] = 3 mg/kg, 72 h, dose level Low, time 3 day
[4] = 3 mg/kg, 120 h, dose level Low, time 5 day

For CCN(CC)CCOc1ccc(/C(=C(/Cl)c2ccccc2)c2ccccc2)cc1 [ENCLOMIPHENE], the “ABSOLUTE BASOPHIL” value [1] was 0 CELLS/uL, the “ABSOLUTE EOSINOPHIL” value [1] was 222.83 CELLS/uL and the “ABSOLUTE LYMPHOCYTE” value [1] was 14453 CELLS/uL. The “ABSOLUTE SEGMENTED NEUTROPHIL” value [1] was 1490.83 CELLS/uL, the BASOPHIL [1] was 0% and the EOSINOPHIL [1] was 1.33%. For the same compound, the “ERYTHROCYTE COUNT” value [1] was 5.76 x10E6/uL, the HEMATOCRIT [1] was 36.52% and the LYMPHOCYTE [1] was 89.33%. For the same compound, the “MEAN CORPUSCULAR HEMOGLOBIN” value [1] was 23.37 pg, the “MEAN CORPUSCULAR HEMOGLOBIN CONCENTRATION” value [1] was 36.85 G/DL and the “MEAN CORPUSCULAR VOLUME” value [1] was 63.47 fL. The MONOCYTE [1] was 0%, the NEUTROPHIL [1] was 9.33% and the “NUCLEATED RED BLOOD CELLS” value [1] was 0 /100WBC. For the same compound, the “PLATELET COUNT” value [1] was 1239.5 x10E3/uL, the “ALANINE AMINOTRANSFERASE” value [1] was 43.83 u/L and the ALBUMIN [1] was 4.27 G/DL. For the same compound, the “ALKALINE PHOSPHATASE” value [1] was 398.83 u/L, the “ASPARTATE AMINOTRANSFERASE” value [1] was 81.17 u/L and the “BLOOD UREA NITROGEN” value [1] was 17.67 mg/dL. The “CARBON DIOXIDE” value [1] was 27.5 mmol/L, the CHLORIDE [1] was 99.17 MEQ/L and the CHOLESTEROL [1] was 74 mg/dL. The “CREATINE PHOSPHOKINASE” value [1] was 331.5 u/L, the CREATININE [1] was 0.2 mg/dL and the GLUCOSE [1] was 171.33 mg/dL. The “LACTATE DEHYDROGENASE” value [1] was 241.67 u/L, the PHOSPHORUS [1] was 12.25 mg/dL and the POTASSIUM [1] was 6.33 MEQ/L. The SODIUM [1] was 141.28 MEQ/L, the “TOTAL BILIRUBIN” value [1] was 0.15 mg/dL and the “TOTAL PROTEIN” value [1] was 5.98 G/DL. For the same compound, the “URIC ACID” value [1] was 1.63 mg/dL, the “ABSOLUTE BASOPHIL” value [2] was 0 CELLS/uL and the “ABSOLUTE EOSINOPHIL” value [2] was 148.67 CELLS/uL. For the same compound, the “ABSOLUTE LYMPHOCYTE” value [2] was 16020.5 CELLS/uL, the “ABSOLUTE SEGMENTED NEUTROPHIL” value [2] was 1468.33 CELLS/uL and the BASOPHIL [2] was 0%. For the same compound, the EOSINOPHIL [2] was 1%, the “ERYTHROCYTE COUNT” value [2] was 5.78 x10E6/uL and the HEMATOCRIT [2] was 35.77%. The “LEUKOCYTE COUNT” value [2] was 17.67 x10E3/uL, the LYMPHOCYTE [2] was 90.5% and the “MEAN CORPUSCULAR HEMOGLOBIN” value [2] was 23.22 pg. For the same compound, the “MEAN CORPUSCULAR HEMOGLOBIN CONCENTRATION” value [2] was 37.47 G/DL, the “MEAN CORPUSCULAR VOLUME” value [2] was 61.92 fL and the MONOCYTE [2] was 0.17%. The NEUTROPHIL [2] was 8.33%, the “NUCLEATED RED BLOOD CELLS” value [2] was 0.17 /100WBC and the “PLATELET COUNT” value [2] was 1255.5 x10E3/uL. The “ALANINE AMINOTRANSFERASE” value [2] was 46.5 u/L, the ALBUMIN [2] was 4.38 G/DL and the “ALKALINE PHOSPHATASE” value [2] was 336 u/L. For the same compound, the “ASPARTATE AMINOTRANSFERASE” value [2] was 76.5 u/L, the “BLOOD UREA NITROGEN” value [2] was 20 mg/dL and the “CARBON DIOXIDE” value [2] was 27.5 mmol/L. The CHLORIDE [2] was 101 MEQ/L, the CHOLESTEROL [2] was 71.33 mg/dL and the “CREATINE PHOSPHOKINASE” value [2] was 231.83 u/L. For the same compound, the CREATININE [2] was 0.37 mg/dL, the GLUCOSE [2] was 168.83 mg/dL and the “LACTATE DEHYDROGENASE” value [2] was 174 u/L. The PHOSPHORUS [2] was 11.48 mg/dL, the POTASSIUM [2] was 6.82 MEQ/L and the SODIUM [2] was 143.8 MEQ/L. For the same compound, the “TOTAL BILIRUBIN” value [2] was 0.2 mg/dL, the “TOTAL PROTEIN” value [2] was 5.98 G/DL and the “URIC ACID” value [2] was 1.83 mg/dL. For the same compound, the “ABSOLUTE BASOPHIL” value [3] was 0 CELLS/uL, the “ABSOLUTE EOSINOPHIL” value [3] was 54.33 CELLS/uL and the “ABSOLUTE LYMPHOCYTE” value [3] was 13020.67 CELLS/uL. For the same compound, the “ABSOLUTE SEGMENTED NEUTROPHIL” value [3] was 996.33 CELLS/uL, the BASOPHIL [3] was 0% and the EOSINOPHIL [3] was 0.33%. For the same compound, the “ERYTHROCYTE COUNT” value [3] was 5.87 x10E6/uL, the HEMATOCRIT [3] was 35.93% and the “LEUKOCYTE COUNT” value [3] was 14.23 x10E3/uL. The LYMPHOCYTE [3] was 91.67%, the “MEAN CORPUSCULAR HEMOGLOBIN” value [3] was 24.23 pg and the “MEAN CORPUSCULAR HEMOGLOBIN CONCENTRATION” value [3] was 39.57 G/DL. The “MEAN CORPUSCULAR VOLUME” value [3] was 61.2 fL, the MONOCYTE [3] was 1% and the NEUTROPHIL [3] was 7%. For the same compound, the “NUCLEATED RED BLOOD CELLS” value [3] was 0 /100WBC, the “PLATELET COUNT” value [3] was 1129 x10E3/uL and the “ALANINE AMINOTRANSFERASE” value [3] was 57.33 u/L. The ALBUMIN [3] was 4.5 G/DL, the “ALKALINE PHOSPHATASE” value [3] was 614.33 u/L and the “ASPARTATE AMINOTRANSFERASE” value [3] was 88 u/L. For the same compound, the “BLOOD UREA NITROGEN” value [3] was 13.67 mg/dL, the “CARBON DIOXIDE” value [3] was 25.33 mmol/L and the CHLORIDE [3] was 105.67 MEQ/L. For the same compound, the CHOLESTEROL [3] was 37 mg/dL, the “CREATINE PHOSPHOKINASE” value [3] was 178 u/L and the CREATININE [3] was 0.16 mg/dL. For the same compound, the GLUCOSE [3] was 148 mg/dL, the “LACTATE DEHYDROGENASE” value [3] was 196.67 u/L and the PHOSPHORUS [3] was 13.37 mg/dL. For the same compound, the POTASSIUM [3] was 6.75 MEQ/L, the SODIUM [3] was 151.6 MEQ/L and the “TOTAL BILIRUBIN” value [3] was 0.2 mg/dL. The “TOTAL PROTEIN” value [3] was 6.17 G/DL, the “URIC ACID” value [3] was 1.43 mg/dL and the “ABSOLUTE BASOPHIL” value [4] was 0 CELLS/uL. For the same compound, the “ABSOLUTE EOSINOPHIL” value [4] was 38.33 CELLS/uL, the “ABSOLUTE LYMPHOCYTE” value [4] was 13151.33 CELLS/uL and the “ABSOLUTE SEGMENTED NEUTROPHIL” value [4] was 736.67 CELLS/uL. For the same compound, the BASOPHIL [4] was 0%, the EOSINOPHIL [4] was 0.33% and the “ERYTHROCYTE COUNT” value [4] was 6.2 x10E6/uL. The HEMATOCRIT [4] was 39.87%, the “LEUKOCYTE COUNT” value [4] was 14.1 x10E3/uL and the LYMPHOCYTE [4] was 93.33%. For the same compound, the “MEAN CORPUSCULAR HEMOGLOBIN” value [4] was 24.13 pg, the “MEAN CORPUSCULAR HEMOGLOBIN CONCENTRATION” value [4] was 37.57 G/DL and the “MEAN CORPUSCULAR VOLUME” value [4] was 64.33 fL. For the same compound, the MONOCYTE [4] was 1%, the NEUTROPHIL [4] was 5.33% and the “NUCLEATED RED BLOOD CELLS” value [4] was 0 /100WBC. The “PLATELET COUNT” value [4] was 1362.67 x10E3/uL and the “ALANINE AMINOTRANSFERASE” value [4] was 51.67 u/L.
